Like-named read-outs stand apart in the source and are kept apart here.
Assays:
Format in all cases: cell-based
HIV-1 mutant virus V106A = test: Inhibition of replication of HIV-1 mutant virus V106A; settings: Human immunodeficiency virus 1, read-out: Average IC50
Method: (§1) Elsulfavirine/Elpida/VM-1500 (la) is the prodrug of the active compound VM-1500A (1b), a Non-Nucleoside Reverse Transcriptase Inhibitor (NNRTI), which efficiently prevents HIV-1 HXB2 strain replication in the MT-4 cell line. […] 0.6±0.6 nM (G190A), 1.3±0.3 nM (L100I/K103N), and 1.3±0.4 nM (K103N/Y181C)

HIV-1 mutant virus G190A = test: Inhibition of replication of HIV-1 mutant virus G190A; settings: Human immunodeficiency virus 1, read-out: Average IC50
Method: as §1

HIV-1 HXB2 strain = test: Inhibition of HIV-1 HXB2 (wild-type) replication in MT-4 cell line
Method: as §1

[1] = system: HIV-1 mutant virus K103N/Y181C; test: Inhibition of replication of HIV-1 mutant virus K103N/Y181C; settings: Human immunodeficiency virus 1, read-out: Average IC50
Method: as §1

[2] = system: HIV-1 mutant virus L100I/K103N; test: Inhibition of replication of HIV-1 mutant virus L100I/K103N; settings: Human immunodeficiency virus 1, read-out: Average IC50
Method: as §1

N#Cc1cc(Cl)cc(Oc2c(Br)ccc(CC(=O)Nc3ccc(S(N)(=O)=O)cc3Cl)c2F)c1 [VM-1500A]
IC50 (HIV-1 mutant virus V106A): 1.2 ± 0.2 nM
IC50 (HIV-1 mutant virus G190A): 0.6 ± 0.6 nM
IC50 (HIV-1 HXB2 strain; Human immunodeficiency virus 1, HXB2, MT4, as restated, converted to ng/ml, read-out: effective concentration (IC50)): 0.74 ng/mL
IC50 (HIV-1 HXB2 strain; Human immunodeficiency virus 1, HXB2, MT4, as restated, read-out: effective concentration (IC50)): 1.3 nM
IC50 (HIV-1 HXB2 strain; Human immunodeficiency virus 1, MT4, wild-type HXB2 strain, MT-4 cell line, read-out: Average IC50): 1.3 ± 0.4 nM
IC50 [1]: 1.3 ± 0.4 nM
IC50 [2]: 1.3 ± 0.3 nM

From patent US20200129533A1, “PHARMACEUTICAL NANOSUSPENSION FOR THE THERAPY OF HIV INFECTION” (priority 2017, published 2020)
